Measurements taken from ChEMBL document CHEMBL1133759, “6beta-Acyloxy(nor)tropanes: affinities for antagonist/agonist binding sites on transfected and native muscarinic receptors” (J Med Chem, 2000).
One block for each molecule: values may come before it.

Tests used:
[1] = target: Muscarinic acetylcholine receptor; assay: The binding affinity was measured as inhibition of binding of [3H]- oxotremorine-M to muscarinic acetylcholine receptor in rat cerebral cortical membranes.; assay type: cell membranes, Membrane
[2] = Ratio of affinity versus antagonist [3H]-QNB divided by affinity versus agonist [3H]OXO-M; assay type: functional
[3] = target: T1, Muscarinic acetylcholine receptor M1 (Homo sapiens, UniProt P11229); assay: The binding affinity was measured as inhibition of binding of [3H]- quinuclidinyl benzilate to Muscarinic acetylcholine receptor M1 in membranes of CHO cells; assay type: cell membranes
T1 sequence (P11229 whole entry): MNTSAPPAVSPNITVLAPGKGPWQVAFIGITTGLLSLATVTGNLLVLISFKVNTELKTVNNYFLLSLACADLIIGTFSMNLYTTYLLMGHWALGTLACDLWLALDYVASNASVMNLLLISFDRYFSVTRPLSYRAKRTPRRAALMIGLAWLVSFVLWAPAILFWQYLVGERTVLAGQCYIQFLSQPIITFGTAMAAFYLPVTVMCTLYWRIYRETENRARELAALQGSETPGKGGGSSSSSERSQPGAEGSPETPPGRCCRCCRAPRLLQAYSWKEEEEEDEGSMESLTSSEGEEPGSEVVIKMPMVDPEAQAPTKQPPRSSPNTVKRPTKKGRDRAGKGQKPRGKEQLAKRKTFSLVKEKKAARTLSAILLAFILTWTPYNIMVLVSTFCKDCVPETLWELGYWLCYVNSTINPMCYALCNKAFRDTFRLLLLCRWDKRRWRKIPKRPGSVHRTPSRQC

[4] = target: Muscarinic acetylcholine receptor
[5] = target: T2, Muscarinic acetylcholine receptor M4 (Homo sapiens, UniProt P08173); assay: Inhibition of [3H]- oxotremorine-M binding to human Muscarinic acetylcholine receptor M4 in CHO cell membranes
T2 sequence (P08173 whole entry): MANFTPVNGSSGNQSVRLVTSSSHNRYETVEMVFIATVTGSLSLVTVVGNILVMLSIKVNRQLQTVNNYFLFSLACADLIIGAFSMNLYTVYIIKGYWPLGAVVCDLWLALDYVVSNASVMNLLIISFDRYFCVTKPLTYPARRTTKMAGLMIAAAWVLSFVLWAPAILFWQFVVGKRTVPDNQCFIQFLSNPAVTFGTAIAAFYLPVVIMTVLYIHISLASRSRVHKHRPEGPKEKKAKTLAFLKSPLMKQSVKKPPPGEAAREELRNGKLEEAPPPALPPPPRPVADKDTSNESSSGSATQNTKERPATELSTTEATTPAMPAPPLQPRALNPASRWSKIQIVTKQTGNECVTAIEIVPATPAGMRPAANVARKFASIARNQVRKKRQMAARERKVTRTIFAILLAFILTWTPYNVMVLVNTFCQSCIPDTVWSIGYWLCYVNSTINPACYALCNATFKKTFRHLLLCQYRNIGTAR

[6] = target: T3, Muscarinic acetylcholine receptor M3 (Homo sapiens, UniProt P20309); assay type: cell membranes, CHO
Target sequence in this assay (P20309 whole entry): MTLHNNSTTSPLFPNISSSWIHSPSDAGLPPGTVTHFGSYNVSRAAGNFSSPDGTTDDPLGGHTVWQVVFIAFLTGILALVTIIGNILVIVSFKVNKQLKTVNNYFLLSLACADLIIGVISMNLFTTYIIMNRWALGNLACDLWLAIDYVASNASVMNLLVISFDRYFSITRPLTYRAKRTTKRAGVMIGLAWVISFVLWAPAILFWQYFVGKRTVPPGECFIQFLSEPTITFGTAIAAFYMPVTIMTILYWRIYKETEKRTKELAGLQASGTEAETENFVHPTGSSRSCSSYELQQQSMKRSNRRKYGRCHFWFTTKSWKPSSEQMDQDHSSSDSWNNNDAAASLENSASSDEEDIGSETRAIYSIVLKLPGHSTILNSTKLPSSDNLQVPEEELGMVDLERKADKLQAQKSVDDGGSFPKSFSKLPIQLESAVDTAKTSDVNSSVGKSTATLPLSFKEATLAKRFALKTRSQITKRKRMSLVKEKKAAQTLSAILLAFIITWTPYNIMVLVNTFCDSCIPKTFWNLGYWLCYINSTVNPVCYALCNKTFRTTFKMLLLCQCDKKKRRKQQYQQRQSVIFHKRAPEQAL

[7] = target: T1, Muscarinic acetylcholine receptor M1; assay: Inhibition of [3H]- oxotremorine-M binding to human Muscarinic acetylcholine receptor M1 expressed in CHO cell membranes; assay type: cell-based
[8] = target: Muscarinic acetylcholine receptor; assay type: cell membranes, Rattus norvegicus, Membrane
[9] = target: Muscarinic acetylcholine receptor; remark: listed apart in the source
[10] = target: T4, Muscarinic acetylcholine receptor M2 (Homo sapiens, UniProt P08172); assay: Inhibition of [3H]- oxotremorine-M binding to human Muscarinic acetylcholine receptor M2 expressed in CHO cell membranes
T4 sequence (P08172 whole entry): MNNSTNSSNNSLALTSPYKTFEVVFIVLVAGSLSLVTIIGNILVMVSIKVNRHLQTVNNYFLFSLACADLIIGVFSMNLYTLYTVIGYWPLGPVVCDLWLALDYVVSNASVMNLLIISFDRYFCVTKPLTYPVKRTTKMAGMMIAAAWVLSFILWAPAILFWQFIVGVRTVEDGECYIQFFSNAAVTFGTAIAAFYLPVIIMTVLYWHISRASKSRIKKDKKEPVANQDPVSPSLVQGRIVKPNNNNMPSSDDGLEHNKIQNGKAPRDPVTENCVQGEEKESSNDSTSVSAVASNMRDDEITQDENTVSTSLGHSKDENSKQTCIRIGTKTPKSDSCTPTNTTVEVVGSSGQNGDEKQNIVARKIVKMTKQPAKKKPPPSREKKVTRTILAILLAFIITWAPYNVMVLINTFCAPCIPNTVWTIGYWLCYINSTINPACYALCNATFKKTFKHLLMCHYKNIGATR

[11] = target: T2, Muscarinic acetylcholine receptor M4; assay type: cell membranes, CHO
[12] = target: T4, Muscarinic acetylcholine receptor M2; assay type: cell membranes, CHO
[13] = target: T5, Muscarinic acetylcholine receptor M1 (Homo sapiens) (UniProt P11229); details: CHO; at 100 µM
T5 sequence (whole entry): T1 sequence (P11229 whole entry)

[14] = target: T3, Muscarinic acetylcholine receptor M3; details: CHO; at 100 µM
Target sequence in this assay (P20309 whole entry, looked up): as the sequence (P20309 whole entry) above
Description: Inhibition of binding of [3H]- quinuclidinyl benzilate to Muscarinic acetylcholine receptor M3 in membranes of CHO cells at 100 uM compound concentration

[15] = target: T5, Muscarinic acetylcholine receptor M1 (Homo sapiens); details: CHO
[16] = target: T5, Muscarinic acetylcholine receptor M1 (Homo sapiens); assay: Inhibition of binding of [3H]- quinuclidinyl benzilate to Muscarinic acetylcholine receptor M1 in membranes of CHO cells at 100 uM; assay type: cell membranes
[17] = target: Muscarinic acetylcholine receptor; assay: The binding affinity was measured as inhibition of binding of [3H]- quinuclidinyl benzilate to Muscarinic acetylcholine receptor; assay type: protein assay
[18] = target: T3, Muscarinic acetylcholine receptor M3; assay: The binding affinity was measured as inhibition of binding of [3H]- quinuclidinyl benzilate to m3 Muscarinic acetylcholine receptor M3 in membranes of CHO cells; assay type: cell membranes
Target sequence in this assay (P20309 whole entry): as the sequence (P20309 whole entry) above

Ki [1]: 1700 nM
Compound: COc1ccc(C(=O)OC2CC3CCCC2N3)cc1 (stereo not given)
Ratio [2]: > 60

Compound: O=C(OC1CC2CCCC1N2)c1ccccc1 (stereo not given)
Ki [3]: 2800 nM
Ki [1]: 650 nM
Ki [4]: 1400 nM
Ki [5]: 500 nM
Ki [6]: 1300 nM
Ki [7]: 120 nM
Ki [8]: 800 nM
Ki [9]: 440 nM
Ratio [2]: 1.2
Ki [10]: 1700 nM
Ki [11]: 190 nM
Ki [12]: 300 nM

Compound: C[C@@H]1O[C@H](C[N+](C)(C)C)C[C@H]1O [MUSCARINE]
inhibition [13]: 2%
inhibition [14]: 28%
Ki [5]: 23 nM
Ki [11]: 1400 nM

Compound: O=C(OC1CC2CCCC1N2)C1CCCCC1 (stereo not given)
Ki [3]: 20000 nM
Ki [1]: 1900 nM
Ki [5]: 2200 nM
Ki [6]: 7500 nM
Ki [7]: 970 nM
Ki [8]: 25000 nM
Ratio [2]: 13
Ki [10]: 9000 nM
Ki [11]: 840 nM
Ki [12]: 3600 nM

Ki [1]: 2800 nM
Ki [8]: 53000 nM
Compound: COc1ccccc1C(=O)OC1CC2CCCC1N2 (stereo not given)
Ratio [2]: 19

Compound: CN(C)C(=O)OC1CC2CCCC1N2 (stereo not given)
Ki [1]: 1700 nM
Ratio [2]: > 60

Compound: CN(C)C(=O)OC1CC2CCCC1N2C (stereo not given)
Ratio [2]: > 60

Ki [1]: 14000 nM
Compound: CN1C2CCCC1C(OC(=O)c1ccc([N+](=O)[O-])cc1)C2 (stereo not given)
Ratio [2]: > 10

Compound: CC(=O)OC1CC2CCCC1N2C (stereo not given)
inhibition (at 100uM) [15]: 11%
Ki [1]: 860 nM
Ki [4]: 17000 nM
Ki [5]: 900 nM
Ki [7]: 2300 nM
Ki [8]: 280000 nM
Ki [9]: 92 nM
Ratio [2]: 330
Ki [10]: 4400 nM

Compound: CCCC(=O)OC1CC2CCCC1N2 (stereo not given)
Ki [1]: 160 nM
Ki [8]: 30000 nM
Ratio [2]: 190

Compound: CN1C2CCCC1C(OC(=O)C1CCCCC1)C2 (stereo not given)
Ki [3]: 7000 nM
Ki [1]: 860 nM
Ki [5]: 700 nM
Ki [6]: 3000 nM
Ki [7]: 450 nM
Ki [8]: 8500 nM
Ratio [2]: 13
Ki [10]: 1600 nM
Ki [11]: 300 nM
Ki [12]: 730 nM

Compound: CCC(=O)OC1CC2CCCC1N2 (stereo not given)
Ki [1]: 30 nM
Ki [5]: 85 nM
Ki [6]: 11400 nM
Ki [7]: 190 nM
Ki [8]: 32000 nM
Ratio [2]: 1100
Ki [10]: 190 nM
inhibition [16]: 36%
Ki [11]: 660 nM
Ki [12]: 3100 nM

Compound: CN1C2CCCC1C(OC(=O)c1ccccc1)C2 (stereo not given)
Ki [3]: 7700 nM
Ki [1]: 860 nM
Ki [4]: 1400 nM
Ki [5]: 910 nM
Ki [6]: 3200 nM
Ki [7]: 270 nM
Ki [8]: 1800 nM
Ki [9]: 790 nM
Ratio [2]: 2.1
Ki [10]: 1300 nM
Ki [11]: 410 nM
Ki [12]: 260 nM

Compound: CCCC(=O)OC1CC2CCCC1N2C (stereo not given)
Ki [1]: 1200 nM
Ki [8]: 34000 nM
Ratio [2]: 28

Ki [1]: 7300 nM
Compound: COc1ccc(C(=O)OC2CC3CCCC2N3C)cc1 (stereo not given)
Ratio [2]: > 15

Compound: CS(=O)(=O)OC1CC2CCCC1N2 (stereo not given)
Ki [1]: 2700 nM
Ratio [2]: > 100

Ki [1]: 1400 nM
Ki [8]: 31000 nM
Compound: COc1ccccc1C(=O)OC1CC2CCCC1N2C (stereo not given)
Ratio [2]: 22

Compound: O=C(Nc1ccccc1)OC1CC2CCCC1N2 (stereo not given)
Ki [1]: 4300 nM
Ratio [2]: > 25

Ki [1]: 5100 nM
Compound: CN1C2CCCC1C(OC(=O)Nc1ccccc1)C2 (stereo not given)
Ratio [2]: > 20

Compound: O=C1CCCN1CC#CCN1CCCC1 [OXOTREMORINE]
inhibition [13]: 9%
Ki [1]: 13 nM
inhibition [14]: 28%
Ki [4]: 330 nM
Ki [5]: 1.5 nM
Ki [7]: 17 nM
Ki [8]: 58000 nM
Ki [9]: 6 nM
Ratio [2]: 4500
Ki [10]: 38 nM
Ki [11]: 160 nM
Ki [12]: 660 nM

Compound: CC(=O)OC1CC2CCCC1N2 (stereo not given)
Ki [1]: 2 nM
Ki [4]: 400 nM
Ki [5]: 4 nM
Ki [7]: 4.6 nM
Ki [9]: 0.95 nM
Ratio [2]: 11000
Ki [10]: 7 nM
Ki [17]: 22000 nM

Compound: CN1C2CCCC1C(OC(=O)OCC(Cl)(Cl)Cl)C2 (stereo not given)
Ki [3]: 27000 nM
Ki [1]: 720 nM
Ki [5]: 2300 nM
Ki [6]: 6700 nM
Ki [7]: 1000 nM
Ki [8]: 23000 nM
Ratio [2]: 31
Ki [10]: 920 nM
Ki [11]: 42 nM
Ki [12]: 820 nM

Compound: O=C(OC1CC2CCCC1N2)c1ccc([N+](=O)[O-])cc1 (stereo not given)
Ki [3]: 780 nM
Ki [1]: 430 nM
Ki [18]: 450 nM
Ki [5]: 450 nM
Ki [7]: 29 nM
Ki [8]: 2200 nM
Ratio [2]: 5.1
Ki [10]: 310 nM
Ki [11]: 48 nM
Ki [12]: 360 nM

Compound: CN1C2CCCC1C(OS(C)(=O)=O)C2 (stereo not given)
Ki [1]: 2200 nM
Ratio [2]: > 100

Compound: CCC(=O)OC1CC2CCCC1N2C (stereo not given)
inhibition [13]: 46%
Ki [1]: 1500 nM
Ki [5]: 1400 nM
Ki [6]: 7400 nM
Ki [7]: 230 nM
Ratio [2]: > 70
Ki [10]: 1200 nM
Ki [11]: 960 nM
Ki [12]: 2400 nM
